Results on 14 compounds are retold here after patent US8410130B2, “Synthesis of 8H-3A-aza-cyclopenta [A ]indenes and 5,10-dihydropyrrolo[1,2-B]isoquinolines derivatives and their use as antitumor therapeutic agents” (Academia Sinica, priority 2007, dated 2013).

For test [1], the system named is CCRF-CEM/VBL. The test is described as follows: In vitro cytotoxicity, XTT assay, vinblastine resistant subline. The settings on record: for IC50: XTT assay, 72-hr incubation; for fold of cross-resistant, CCRF-CEM/VBL vs IC50 of the parent cell line: numbers in brackets. It is filed as cell-based, human. From the text:
(§1) Human colon carcinoma HCT-116 cells, human prostate adenocarcinoma PC-3 and adenocarcinoma SK-OV-3 cells were obtained from American Type Culture Collection (ATCC, Rockville, Md.). Human mammary carcinoma (MX-1) tumor cells were obtained from MSKCC cell bank. The CCRF-CEM human lymphoblastic leukemia cells and their vinblastine resistant subline (CCRF-CEM/VBL, 680-fold resistance in vitro) were obtained from Dr. William Beck of the University of Illinois, Chicago, and CCRF-CEM/Taxol (330-fold resistance in vitro). Resistant cells CCRF-CEM/taxol were produced by exposing the parent cells to increasing sublethal concentration (IC50-IC90) of paclitaxel for six months.
(§2) In preparation for in vitro cytotoxicity assays, cells were cultured at an initial density 2-5×10^4 cells per milliliter. They were maintained in a 5% CO2-humidified atmosphere at 37° C. in RPMI medium 1640 (GIBCO/BRL) containing penicillin (100 units/mL), streptomycin (100 μg/mL, GIBCO/BRL), and 5% heat-inactivated FBS. For cells grown in suspension (such as CCRF-CEM and its sublines), cytotoxicity was measured, by using XTT microculture method in 96-well microtiter plates (Scudiero D A et al., Cancer Res. 1988, 48, 4827-4833). For solid tumor cells growing in a monolayer (such as MX-1 and HCT-116), cytotoxicity of the drug was determined, in duplicate, in 96-well microtiter plates by using the sulforhodamine B method (Skehan P et al., J. Natl. Cancer Inst 1990, 82, 1107-1112). For both methods, the absorbance of each well was measured with a microplate reader (Power Wave XS, Bio-Tek, Winooski, Vt.) after 72-hr incubation as described previously (Chou T-C et al., Proc. Natl. Acad. Sci. USA 2001, 98, 8113-8118). Dose-effect relationship data from 6 to 7 concentrations of each drug, in duplicate, were analyzed by using a computer program (Chou T-C et al., ComboSyn, Inc., Paramus, N J. 2005) based on the median-effect principle and plot (Chou T-C et al., Adv. Enzyme Regul. 1984, 22, 27-55; Chou T-C, Pharmacol. Rev. 2006, 58, 621-681).
(§3) The IC50 is defined by the concentration required to inhibit tumor cell growth by 50%. […] The growth inhibition of the compounds disclosed herein against human lymphoblastic leukemic cells (CCRF-CEM) and its drug-resistant sublines (resistant to vinblastine and taxol, CCRF-CEM/VBL and CCRF-CEM/taxol, respectively) is also shown in Table 5. […] Thus, the compounds disclosed herein are effective against multiple drug resistant tumors.
(In general: Tetrazolium assays rely on reduction of a dye to a coloured formazan, in cell work by metabolically active cells.)

The test system of test [2] is CCRF-CEM human lymphoblastic leukemia cells. The test is described as follows: In vitro cytotoxicity, XTT assay, 72-hr incubation. Type of test: cell-based.
Source text: as §1, §2, §3

For test [3], the system named is CCRF-CEM/Taxol. The test is described as follows: In vitro cytotoxicity, XTT assay, taxol resistant subline. It is filed as cell-based, human. To be noted: for IC50: XTT assay, 72-hr incubation; for fold of cross-resistant, CCRF-CEM/Taxol vs IC50 of the parent cell line: numbers in brackets.
Source text: as §1, §2, §3

In test [4] the test system is Human mammary carcinoma (MX-1) tumor cells. The test is described as follows: In vitro cytotoxicity, sulforhodamine B (SRB) assay. It is filed as cell-based. To be noted: 72-hr incubation.
Source text: as §1, §2, §3
For orientation: In SRB staining, fixed cells bind dye roughly in proportion to their protein.

Test [5] relates to Human colon carcinoma HCT-116 cells. The test is described as above. Type of test: cell-based.
Source text: as §1, §2, §3

The mark [6] stands for this setting: Homo sapiens, HCT-116, 72-hr incubation.

Where two headings read alike, the source gives them in different places.

The IC50 is the concentration that gives 50% inhibition. Higher therefore signals a need for much substance. With `OCc1c(CO)c(-c2ccc(Cl)cc2)n2c1Cc1ccccc1-2` [DA-1003, (3-(4-Chlorophenyl)-2-hydroxymethyl-8H-3a-aza-cyclopenta[a]inden-1-yl)methanol], the IC50 worked out at 2530 nM in test [1] (Homo sapiens, CCRF-CEM); 4270 nM in test [2] (Homo sapiens, CCRF-CEM); 4220 nM in test [3] (Homo sapiens, CCRF-CEM); 6130 nM in test [4] (Homo sapiens); 5590 nM in test [5] (setting [6]). Also, in test [1], the “fold of cross-resistant, CCRF-CEM/VBL vs IC50 of the parent cell line” value (from here on “fold of cross-resistant, CCRF-CEM/VBL”) was “[0.59x]”. For the same compound, the “fold of cross-resistant, CCRF-CEM/Taxol vs IC50 of the parent cell line” value (shortened to “fold of cross-resistant, CCRF-CEM/Taxol”) in test [3] was “[1.00x]”.
With `COc1ccc(-c2c(CO)c(CO)c3n2-c2ccccc2C3)cc1` [DA-1005, (2-Hydroxymethyl-3-(4-methoxyphenyl)-8H-3a-aza-cyclopenta[a]inden-1-yl)methanol], the IC50 was found to be 1670 nM in test [1] (Homo sapiens, CCRF-CEM); 1160 nM in test [2] (Homo sapiens, CCRF-CEM); 1660 nM in test [3] (Homo sapiens, CCRF-CEM); 10800 nM in test [4] (Homo sapiens); 5830 nM in test [5] (setting [6]). In addition, in test [1], the “fold of cross-resistant, CCRF-CEM/VBL” value is “[1.4x]”. Besides, the “fold of cross-resistant, CCRF-CEM/Taxol” value in test [3] was “[1.4x]”.
Turning to `OCc1c(CO)c(-c2ccccc2)n2c1Cc1ccccc1-2` [DA-1011, (2-hydroxymethyl-3-phenyl-8H-3a-azacyclopenta[a]inden-1-yl)-methanol], the IC50 in test [1] (Homo sapiens, CCRF-CEM) came out at 213 nM; in test [2] (Homo sapiens, CCRF-CEM), 252 nM; in test [3] (Homo sapiens, CCRF-CEM) it was 224 nM; in test [4] (Homo sapiens), 1350 nM; in test [5] (setting [6]) it was 1850 nM. In addition, the “fold of cross-resistant, CCRF-CEM/VBL” value in test [1] is “[0.85x]”. In addition, in test [3], the “fold of cross-resistant, CCRF-CEM/Taxol” value was “[0.89x]”.
In the case of `CNC(=O)OCc1c(COC(=O)NC)c(-c2ccccc2)n2c1Cc1ccccc1-2` [DA-1022, Methylcarbamic acid 2-methylcarbamoyloxymethyl-3-phenyl-8H-3a-aza-cyclopenta[a] inden-1-ylmethylester], the IC50 in test [1] (Homo sapiens, CCRF-CEM) was determined as 1620 nM; in test [2] (Homo sapiens, CCRF-CEM), 357 nM; in test [3] (Homo sapiens, CCRF-CEM), 556 nM; in test [4] (Homo sapiens) it was 5920 nM; in test [5] (setting [6]), 761 nM. Further, the “fold of cross-resistant, CCRF-CEM/VBL” value in test [1] was “[4.5x]”. Besides, the “fold of cross-resistant, CCRF-CEM/Taxol” value in test [3] was “[1.6x]”.
On to `OCc1c(CO)c(-c2ccc(F)cc2)n2c1Cc1ccccc1-2` [DA-1024, (3-(4-Flourophenyl)-2-hydroxymethyl-8H-3a-aza-cyclopenta[a]inden-1-yl)methanol], for which the 50% inhibitory concentration (IC50) in test [1] came out at 4070 nM; in test [2], 4250 nM; in test [3], 11000 nM; in test [4], 22300 nM; in test [5] (72-hr incubation), 8070 nM. Further, the “fold of cross-resistant, CCRF-CEM/VBL” value in test [1] was “[0.96x]”. The “fold of cross-resistant, CCRF-CEM/Taxol” value in test [3] was “[2.6x]”.
Turning to `OCc1c(CO)c(-c2ccc(F)c(F)c2)n2c1Cc1ccccc1-2` [DA-1025, (3-(3,4-Diflourophenyl)-2-hydroxymethyl-8H-3a-aza-cyclopenta[a]inden-1-yl)methanol], the concentration for half-maximal inhibition (IC50) in test [1] is 7270 nM; in test [2], 4910 nM; in test [3], 7780 nM; in test [4] it was 7000 nM; in test [5] (72-hr incubation) it was 10800 nM. Also, in test [1], the “fold of cross-resistant, CCRF-CEM/VBL” value was “[1.98x]”. In addition, the “fold of cross-resistant, CCRF-CEM/Taxol” value in test [3] is “[1.6x]”.
Turning to `CNC(=O)OCc1c(COC(=O)NC)c(-c2ccc(F)cc2)n2c1Cc1ccccc1-2` [DA-1026, Methylcarbamic acid 3-(4-flourophenyl)-2-methylcarbamoyloxymethyl-8H-3a-aza-cyclopenta[a]inden-1-ylmethyl ester], the IC50 amounted to 307 nM in test [1]; 137 nM in test [2]; 284 nM in test [3]; 744 nM in test [4]; 397 nM in test [5] (72-hr incubation). In test [1], the “fold of cross-resistant, CCRF-CEM/VBL” value is “[2.2x]”. The “fold of cross-resistant, CCRF-CEM/Taxol” value in test [3] is “[2.1x]”.
Regarding `CNC(=O)OCc1c(COC(=O)NC)c(-c2ccc(F)c(F)c2)n2c1Cc1ccccc1-2` [DA-1027, Methylcarbamic acid 3-(3,4-diflourophenyl)-2-methylcarbamoyloxymethyl-8H-3a-aza-cyclopenta[a]inden-1-ylmethyl ester], the half-inhibitory concentration (IC50) in test [1] stood at 632 nM; in test [2], 639 nM; in test [3], 644 nM; in test [4] it was 7840 nM; in test [5] (72-hr incubation), 878 nM. For the same compound, the “fold of cross-resistant, CCRF-CEM/VBL” value in test [1] is “[0.99x]”. In addition, the “fold of cross-resistant, CCRF-CEM/Taxol” value in test [3] is “[1.0x]”.
As for `COc1ccc(-c2c(CO)c(CO)c3n2-c2ccccc2C3)cc1OC` [DA-1097, (3-(3,4-Dimethoxyphenyl)-2-hydroxymethyl-8H-3a-aza-cyclopenta[a]inden-1-yl)methanol], the IC50 was 1140 nM in test [1] (Homo sapiens, CCRF-CEM); 1040 nM in test [2] (Homo sapiens, CCRF-CEM); 1950 nM in test [3] (Homo sapiens, CCRF-CEM); 11100 nM in test [4] (Homo sapiens); 4090 nM in test [5] (setting [6]). Besides, the “fold of cross-resistant, CCRF-CEM/VBL” value in test [1] was “[1.1x]”. The “fold of cross-resistant, CCRF-CEM/Taxol” value in test [3] was “[1.87x]”.
Turning to `CNC(=O)OCc1c(COC(=O)NC)c2n(c1C)-c1ccccc1C2` [DA-1100, methyl carbamic acid 3-methyl-2-methylcarbamoyloxymethyl-8H-3a-aza-cyclopenta[a]inden-1-yl methyl ester], the IC50 came out at 126 nM in test [1] (Homo sapiens, CCRF-CEM); 188 nM in test [2] (Homo sapiens, CCRF-CEM); 67 nM in test [3] (Homo sapiens, CCRF-CEM); 355 nM in test [4] (Homo sapiens); 297 nM in test [5] (setting [6]). Besides, the “fold of cross-resistant, CCRF-CEM/VBL” value in test [1] is “[0.67x]”. Further, the “fold of cross-resistant, CCRF-CEM/Taxol” value in test [3] was “[0.36x]”.
In the case of `CCc1c(COC(=O)NC)c(COC(=O)NC)c2n1-c1ccccc1C2` [DA-1101, methyl carbamic acid 3-ethyl-2-methyl carbamoyloxymethyl-8H-3a-aza-cyclopenta[a]inden-1-ylmethyl ester], the 50% inhibitory concentration (IC50) in test [1] (Homo sapiens, CCRF-CEM) was determined as 78 nM; in test [2] (Homo sapiens, CCRF-CEM), 68 nM; in test [3] (Homo sapiens, CCRF-CEM), 99 nM; in test [4] (Homo sapiens) it was 670 nM; in test [5] (setting [6]), 707 nM. In test [1], the “fold of cross-resistant, CCRF-CEM/VBL” value was “[1.15x]”. In addition, the “fold of cross-resistant, CCRF-CEM/Taxol” value in test [3] was “[1.46x]”.
Take `COc1ccc(-c2c(CO)c(CO)c3n2Cc2ccccc2C3)cc1` [DA-1106, [2-Hydroxymethyl-3-(4-methoxyphenyl)-5,10-dihydropyrrolo[1,2-b]isoquinolin-1-yl]methanol]: the IC50 is 111 nM in test [1] (Homo sapiens, CCRF-CEM); 228 nM in test [2] (Homo sapiens, CCRF-CEM); 232 nM in test [3] (Homo sapiens, CCRF-CEM); 1940 nM in test [4] (Homo sapiens); 1030 nM in test [5] (setting [6]). In test [1], the “fold of cross-resistant, CCRF-CEM/VBL” value is “[0.49x]”. Further, the “fold of cross-resistant, CCRF-CEM/Taxol” value in test [3] is “[1.02x]”.
As for `CNC(=O)OCc1c(COC(=O)NC)c2n(c1C)Cc1ccccc1C2` [DA-1108, methylcarbamic acid 3-methyl-1-methylcarbamoyloxymethyl-5,10-dihydro-pyrrolo[1,2-b]isoquinolin-2-ylmethyl ester], the IC50 in test [1] (Homo sapiens, CCRF-CEM) stood at 76 nM; in test [2] (Homo sapiens, CCRF-CEM), 128 nM; in test [3] (Homo sapiens, CCRF-CEM), 111 nM; in test [4] (Homo sapiens), 1680 nM; in test [5] (setting [6]), 1160 nM. Moreover, in test [1], the “fold of cross-resistant, CCRF-CEM/VBL” value is “[0.59x]”. Also, the “fold of cross-resistant, CCRF-CEM/Taxol” value in test [3] was “[0.87x]”.
As to `CNC(=O)OCc1c(COC(=O)NC)c(-c2ccc(OC)cc2)n2c1Cc1ccccc1C2` [DA-1109, methylcarbamic acid 3-(4-methoxyphenyl)-2-methylcarbamoyloxymethyl-5,10-dihydr-pyrrolo[1,2-b]isoquinolin-1-ylmethyl ester], the IC50 worked out at 111 nM in test [1]; 184 nM in test [2]; 161 nM in test [3]; 1310 nM in test [4]; 1110 nM in test [5] (72-hr incubation). In addition, the “fold of cross-resistant, CCRF-CEM/VBL” value in test [1] was “[0.60x]”. In addition, the “fold of cross-resistant, CCRF-CEM/Taxol” value in test [3] was “[0.88x]”.
